Experimental data as given in patent publication US20260140098A1, “METHOD FOR TREATING PLASMA SAMPLE CONTAINING (7aS,2'S)-2-OXO-CLOPIDOGREL AND METHOD FOR DETERMINING THE SAME” (CHENGDU SHIBEIKANG BIOMEDICAL TECHNOLOGY CO., LTD., priority 2021, published 2026).
Like-named read-outs stand apart in the source and are kept apart here.

Assay: Stability of (7aS,2′S)-2-oxo-clopidogrel in plasma at −80° C., screening of reducing agent type (Example 5)
Format: in vitro ADME
Details: for recovery at 0 day, 0.1 ng/mL / recovery at 10 day, 0.1 ng/mL / recovery at 30 day, 0.1 ng/mL / recovery at 60 day, 0.1 ng/mL: theoretical 0.1 ng/mL; for recovery at 0 day, 0.1 ng/mL / recovery at 0 day, 12 ng/mL: day 0, read-out: Recovery rate; for recovery at 10 day, 0.1 ng/mL / recovery at 10 day, 12 ng/mL: day 10, read-out: Recovery rate; for recovery at 30 day, 0.1 ng/mL / recovery at 30 day, 12 ng/mL: day 30, read-out: Recovery rate; for recovery at 60 day, 0.1 ng/mL / recovery at 60 day, 12 ng/mL: day 60, read-out: Recovery rate; for recovery at 0 day, 12 ng/mL / recovery at 10 day, 12 ng/mL / recovery at 30 day, 12 ng/mL / recovery at 60 day, 12 ng/mL: theoretical 12.0 ng/mL
Method: S2. Plasma sample pre-treatment: taking 100 μl of the plasma, adding 5 μl of an internal standard working solution and 300 μl of acetonitrile respectively; after vortex mixing, centrifuging at 2-8° C. and 10,000 r/min for 10 min, and collecting the supernatant for later use.
S3. LC-MS/MS analysis: injecting 10 μl of the supernatant prepared from step S2 for determination, where the liquid chromatography conditions are: • the chromatographic column is Kinetex® 1.7 μm C18 100 A 100×2.1 mm; the column temperature is 40° C.; the mobile phase is acetonitrile-0.2% aqueous formic acid solution with a flow rate of 0.2 ml/min; and a gradient elution is carried out as specified in the table below:
ESI ion source, positive ion detection in multiple reaction monitoring mode (MRM); the quantitatively analyzed ions (7aS,2′S)-2-oxo-clopidogrel: m/z 338.100→155.000, IS: m/z 341.100→158.000, a capillary voltage of 4.0 KV, a cone voltage of 25 V, a desolvation gas temperature of 400° C. and a source temperature of 150° C. The optimal collision energy is 20 eV.
Blank plasma was taken and different antioxidants (DTT, TCEP, ME) were added to prepare plasma containing an antioxidant at a concentration of 100 mg/ml. Subsequently, standard series solution of (7aS,2′S)-2-oxo-clopidogrel was added separately to prepare quality control samples with two concentrations of (7aS,2′S)-2-oxo-clopidogrel (0.1 and 12.0 ng/ml), 3 samples for each concentration. They were placed in a refrigerator at −80° C., and the plasma samples at different placing time points were taken to examine the stability by pre-treating the plasma samples according to the method of S2 of Example 1, followed by LC/MS/MS determination according to the method of S3.

[1] = blank plasma containing DTT 100 mg/ml, DTT 100 mg/ml
[2] = blank plasma containing ME 100 mg/ml, ME 100 mg/ml
[3] = blank plasma containing TCEP 100 mg/ml, TCEP 100 mg/ml

- recovery at 0 day, 0.1 ng/mL [1]: 102%
- recovery at 10 day, 0.1 ng/mL [1]: 103%
- recovery at 30 day, 0.1 ng/mL [1]: 95.5%
- recovery at 0 day, 0.1 ng/mL [2]: 102%
- recovery at 10 day, 0.1 ng/mL [2]: 101%
- recovery at 30 day, 0.1 ng/mL [2]: 91.5%
- recovery at 60 day, 0.1 ng/mL [2]: 86.6%
- recovery at 0 day, 12 ng/mL [2]: 101%
- recovery at 10 day, 12 ng/mL [2]: 99.2%
- recovery at 30 day, 12 ng/mL [2]: 96.5%
- recovery at 60 day, 12 ng/mL [2]: 87.9%
- recovery at 60 day, 0.1 ng/mL [3]: 101%
- recovery at 0 day, 12 ng/mL [3]: 101%
- recovery at 10 day, 12 ng/mL [3]: 100%
- recovery at 30 day, 12 ng/mL [3]: 102%
- recovery at 60 day, 12 ng/mL [3]: 101%
- recovery at 60 day, 0.1 ng/mL (plasma, DTT 100 mg/ml): 89.9%
- recovery at 0 day, 12 ng/mL (plasma, DTT 100 mg/ml): 101%
- recovery at 10 day, 12 ng/mL (plasma, DTT 100 mg/ml): 100%
- recovery at 30 day, 12 ng/mL (plasma, DTT 100 mg/ml): 98.9%
- recovery at 60 day, 12 ng/mL (plasma, DTT 100 mg/ml): 92.4%
- recovery at 0 day, 0.1 ng/mL (plasma, TCEP 100 mg/ml): 102%
- recovery at 10 day, 0.1 ng/mL (plasma, TCEP 100 mg/ml): 105%
- recovery at 30 day, 0.1 ng/mL (plasma, TCEP 100 mg/ml): 99.3%
SMILES: COC(=O)[C@H](c1ccccc1Cl)N1CC[C@@H]2SC(=O)C=C2C1 [(7aS,2′S)-2-oxo-clopidogrel, methyl(S)-2-(2-chlorophenyl)-2-((S)-2-oxo-2,6,7,7a-tetrahydrothieno[3,2-c]pyridin-5 (4H)-yl)acetate]
- Stability of plasma samples (in words) (with TCEP compared with DTT and ME, 100 mg/ml): better than that of the plasma samples with DTT and ME
